Laboratory results: ChEMBL document CHEMBL4665642, “Anticancer profile of newly synthesized BRAF inhibitors possess 5-(pyrimidin-4-yl)imidazo[2,1-b]thiazole scaffold” (Bioorg Med Chem, 2019)

What was measured:
Format in all cases: functional
Settings in all cases: read-out: Activity
MDA-MB-435 = test: Cytotoxicity against human MDA-MB-435 cells assessed as cell viability at 10 uM incubated for 48 hrs by sulforhodamine B assay relative to control
NCI-H226 = test: Cytotoxicity against human NCI-H226 cells assessed as cell viability at 10 uM incubated for 48 hrs by sulforhodamine B assay relative to control
NCI-H522 = test: Cytotoxicity against human NCI-H522 cells assessed as cell viability at 10 uM incubated for 48 hrs by sulforhodamine B assay relative to control
MDA-MB-468 = test: Cytotoxicity against human MDA-MB-468 cells assessed as cell viability at 10 uM incubated for 48 hrs by sulforhodamine B assay relative to control
LOX IMVI = test: Cytotoxicity against human LOX IMVI cells assessed as cell viability at 10 uM incubated for 48 hrs by sulforhodamine B assay relative to control
SF-295 = test: Cytotoxicity against human SF-295 cells assessed as cell viability at 10 uM incubated for 48 hrs by sulforhodamine B assay relative to control
Malme-3M = test: Cytotoxicity against human Malme-3M cells assessed as cell viability at 10 uM incubated for 48 hrs by sulforhodamine B assay relative to control
U-251 = test: Cytotoxicity against human U-251 cells assessed as cell viability at 10 uM incubated for 48 hrs by sulforhodamine B assay relative to control
BT-549 = test: Cytotoxicity against human BT-549 cells assessed as cell viability at 10 uM incubated for 48 hrs by sulforhodamine B assay relative to control
M14 = test: Cytotoxicity against human M14 cells assessed as cell viability at 10 uM incubated for 48 hrs by sulforhodamine B assay relative to control
UACC-257 = test: Cytotoxicity against human UACC-257 cells assessed as cell viability at 10 uM incubated for 48 hrs by sulforhodamine B assay relative to control
786-0 = test: Cytotoxicity against human 786-0 cells assessed as cell viability at 10 uM incubated for 48 hrs by sulforhodamine B assay relative to control
NCI/ADR-RES = test: Cytotoxicity against human NCI/ADR-RES cells assessed as cell viability at 10 uM incubated for 48 hrs by sulforhodamine B assay relative to control
SK-MEL-28 = test: Cytotoxicity against human SK-MEL-28 cells assessed as cell viability at 10 uM incubated for 48 hrs by sulforhodamine B assay relative to control
CAKI-1 = test: Cytotoxicity against human CAKI-1 cells assessed as cell viability at 10 uM incubated for 48 hrs by sulforhodamine B assay relative to control
COLO 205 = test: Cytotoxicity against human COLO 205 cells assessed as cell viability at 10 uM incubated for 48 hrs by sulforhodamine B assay relative to control
SR = test: Cytotoxicity against human SR cells assessed as cell viability at 10 uM incubated for 48 hrs by sulforhodamine B assay relative to control
HOP-92 = test: Cytotoxicity against human HOP-92 cells assessed as cell viability at 10 uM incubated for 48 hrs by sulforhodamine B assay relative to control
NCI-H460 = test: Cytotoxicity against human NCI-H460 cells assessed as cell viability at 10 uM incubated for 48 hrs by sulforhodamine B assay relative to control
NCI-H23 = test: Cytotoxicity against human NCI-H23 cells assessed as cell viability at 10 uM incubated for 48 hrs by sulforhodamine B assay relative to control
NCI-H322M = test: Cytotoxicity against human NCI-H322M cells assessed as cell viability at 10 uM incubated for 48 hrs by sulforhodamine B assay relative to control
OVCAR-8 = test: Cytotoxicity against human OVCAR-8 cells assessed as cell viability at 10 uM incubated for 48 hrs by sulforhodamine B assay relative to control
HCT-116 = test: Cytotoxicity against human HCT-116 cells assessed as cell viability at 10 uM incubated for 48 hrs by sulforhodamine B assay relative to control
OVCAR-3 = test: Cytotoxicity against human OVCAR-3 cells assessed as cell viability at 10 uM incubated for 48 hrs by sulforhodamine B assay relative to control
ACHN = test: Cytotoxicity against human ACHN cells assessed as cell viability at 10 uM incubated for 48 hrs by sulforhodamine B assay relative to control
UACC-62 = test: Cytotoxicity against human UACC-62 cells assessed as cell viability at 10 uM incubated for 48 hrs by sulforhodamine B assay relative to control
SW-620 = test: Cytotoxicity against human SW-620 cells assessed as cell viability at 10 uM incubated for 48 hrs by sulforhodamine B assay relative to control
TK-10 = test: Cytotoxicity against human TK-10 cells assessed as cell viability at 10 uM incubated for 48 hrs by sulforhodamine B assay relative to control
HCT-15 = test: Cytotoxicity against human HCT-15 cells assessed as cell viability at 10 uM incubated for 48 hrs by sulforhodamine B assay relative to control
SK-OV-3 = test: Cytotoxicity against human SK-OV-3 cells assessed as cell viability at 10 uM incubated for 48 hrs by sulforhodamine B assay relative to control
CCRF-CEM = test: Cytotoxicity against human CCRF-CEM cells assessed as cell viability at 10 uM incubated for 48 hrs by sulforhodamine B assay relative to control
DU-145 = test: Cytotoxicity against human DU-145 cells assessed as cell viability at 10 uM incubated for 48 hrs by sulforhodamine B assay relative to control
KM12 = test: Cytotoxicity against human KM12 cells assessed as cell viability at 10 uM incubated for 48 hrs by sulforhodamine B assay relative to control
SN12C = test: Cytotoxicity against human SN12C cells assessed as cell viability at 10 uM incubated for 48 hrs by sulforhodamine B assay relative to control
SF-268 = test: Cytotoxicity against human SF-268 cells assessed as cell viability at 10 uM incubated for 48 hrs by sulforhodamine B assay relative to control
SNB-75 = test: Cytotoxicity against human SNB-75 cells assessed as cell viability at 10 uM incubated for 48 hrs by sulforhodamine B assay relative to control
Hs-578T = test: Cytotoxicity against human HS-578T cells assessed as cell viability at 10 uM incubated for 48 hrs by sulforhodamine B assay relative to control
MDA-MB-231 = test: Cytotoxicity against human MDA-MB-231 cells assessed as cell viability at 10 uM incubated for 48 hrs by sulforhodamine B assay relative to control
HCT-29 = test: Cytotoxicity against human […] cells assessed as cell viability at 10 uM incubated for 48 hrs by sulforhodamine B assay relative to control
RXF 393 = test: Cytotoxicity against human RXF 393 cells assessed as cell viability at 10 uM incubated for 48 hrs by sulforhodamine B assay relative to control

O=S(=O)(NCCCNc1nccc(-c2c(-c3cccc(F)c3)nc3sccn23)n1)c1ccc(O)cc1
viability at 10 µM (MDA-MB-435): 33.4% | viability at 10 µM (NCI-H226): 64.3% | viability at 10 µM (NCI-H522): 85% | viability at 10 µM (MDA-MB-468): 60.4% | viability at 10 µM (LOX IMVI): 61.2% | viability at 10 µM (SF-295): 92% | viability at 10 µM (Malme-3M): 107% | viability at 10 µM (U-251): 73.2% | viability at 10 µM (BT-549): 82.5% | viability at 10 µM (M14): 70.3% | viability at 10 µM (UACC-257): 104% | viability at 10 µM (786-0): 65.5% | viability at 10 µM (NCI/ADR-RES): 79.1% | viability at 10 µM (SK-MEL-28): 95.9% | viability at 10 µM (CAKI-1): 51.9% | viability at 10 µM (COLO 205): 48.4% | viability at 10 µM (SR): 52.6% | viability at 10 µM (HOP-92): 98.1% | viability at 10 µM (NCI-H460): 52.9% | viability at 10 µM (NCI-H23): 87.6% | viability at 10 µM (NCI-H322M): 79.2% | viability at 10 µM (OVCAR-8): 66.2% | viability at 10 µM (HCT-116): 60% | viability at 10 µM (OVCAR-3): 80.5% | viability at 10 µM (ACHN): 43.7% | viability at 10 µM (UACC-62): 60.1% | viability at 10 µM (SW-620): 82.7% | viability at 10 µM (TK-10): 87.6% | viability at 10 µM (HCT-15): 43.5% | viability at 10 µM (SK-OV-3): 86.4% | viability at 10 µM (CCRF-CEM): 67.6% | viability at 10 µM (DU-145): 77.4% | viability at 10 µM (KM12): 27.4% | viability at 10 µM (SN12C): 58.7% | viability at 10 µM (SF-268): 62.8% | viability at 10 µM (SNB-75): 77.8% | viability at 10 µM (Hs-578T): 85.6% | viability at 10 µM (MDA-MB-231): 83.9% | viability at 10 µM (HCT-29): 41.8% | viability at 10 µM (RXF 393): 84%

O=S(=O)(NCCNc1nccc(-c2c(-c3cccc(F)c3)nc3sccn23)n1)c1cccc2ccccc12
viability at 10 µM (MDA-MB-435): 87.7% | viability at 10 µM (NCI-H226): 94.1% | viability at 10 µM (NCI-H522): 95.5% | viability at 10 µM (MDA-MB-468): 86.1% | viability at 10 µM (LOX IMVI): 95.7% | viability at 10 µM (SF-295): 106% | viability at 10 µM (Malme-3M): 118% | viability at 10 µM (U-251): 97.4% | viability at 10 µM (BT-549): 104% | viability at 10 µM (M14): 107% | viability at 10 µM (UACC-257): 107% | viability at 10 µM (786-0): 95.4% | viability at 10 µM (NCI/ADR-RES): 97.3% | viability at 10 µM (SK-MEL-28): 123% | viability at 10 µM (CAKI-1): 77.5% | viability at 10 µM (COLO 205): 85% | viability at 10 µM (SR): 88.1% | viability at 10 µM (HOP-92): 91.2% | viability at 10 µM (NCI-H460): 97.7% | viability at 10 µM (NCI-H23): 99.9% | viability at 10 µM (NCI-H322M): 104% | viability at 10 µM (OVCAR-8): 89.4% | viability at 10 µM (HCT-116): 84.6% | viability at 10 µM (OVCAR-3): 103% | viability at 10 µM (ACHN): 80.1% | viability at 10 µM (UACC-62): 91.8% | viability at 10 µM (SW-620): 115% | viability at 10 µM (TK-10): 112% | viability at 10 µM (HCT-15): 83.6% | viability at 10 µM (SK-OV-3): 98.5% | viability at 10 µM (CCRF-CEM): 93.9% | viability at 10 µM (DU-145): 97.8% | viability at 10 µM (KM12): 85% | viability at 10 µM (SN12C): 97.1% | viability at 10 µM (SF-268): 85.6% | viability at 10 µM (SNB-75): 92.3% | viability at 10 µM (Hs-578T): 103% | viability at 10 µM (MDA-MB-231): 95% | viability at 10 µM (HCT-29): 83.2% | viability at 10 µM (RXF 393): 102%

O=C(NCCCNc1nccc(-c2c(-c3cccc(F)c3)nc3sccn23)n1)c1ccc(C(F)(F)F)cc1
viability at 10 µM (MDA-MB-435): 68.7% | viability at 10 µM (NCI-H226): 78.8% | viability at 10 µM (NCI-H522): 90.3% | viability at 10 µM (MDA-MB-468): 76.6% | viability at 10 µM (LOX IMVI): 82.6% | viability at 10 µM (SF-295): 87.5% | viability at 10 µM (Malme-3M): 121% | viability at 10 µM (U-251): 83% | viability at 10 µM (BT-549): 83.4% | viability at 10 µM (M14): 82.8% | viability at 10 µM (UACC-257): 106% | viability at 10 µM (786-0): 58.9% | viability at 10 µM (NCI/ADR-RES): 74.7% | viability at 10 µM (SK-MEL-28): 96.2% | viability at 10 µM (CAKI-1): 62.5% | viability at 10 µM (COLO 205): 74.8% | viability at 10 µM (SR): 86.8% | viability at 10 µM (HOP-92): 93.6% | viability at 10 µM (NCI-H460): 92.1% | viability at 10 µM (NCI-H23): 95.5% | viability at 10 µM (NCI-H322M): 90.3% | viability at 10 µM (OVCAR-8): 73.9% | viability at 10 µM (HCT-116): 66.7% | viability at 10 µM (OVCAR-3): 82.3% | viability at 10 µM (ACHN): 64.5% | viability at 10 µM (UACC-62): 69.6% | viability at 10 µM (SW-620): 111% | viability at 10 µM (TK-10): 74% | viability at 10 µM (HCT-15): 54.2% | viability at 10 µM (SK-OV-3): 69% | viability at 10 µM (CCRF-CEM): 89.1% | viability at 10 µM (DU-145): 81.3% | viability at 10 µM (KM12): 85.4% | viability at 10 µM (SN12C): 80.1% | viability at 10 µM (SF-268): 67.8% | viability at 10 µM (SNB-75): 82.6% | viability at 10 µM (Hs-578T): 75.7% | viability at 10 µM (MDA-MB-231): 89.1% | viability at 10 µM (HCT-29): 53.8% | viability at 10 µM (RXF 393): 74.6%
